Assay results: paper PMC7732024 (Bioorganic & medicinal chemistry letters, 2012)

What was measured:
[1] = test system: subgenomic HCV 1b replicon; test: HCV RNA replication in Huh7 cells containing a subgenomic HCV 1b replicon; format: cell-based, HCV genotype 1b; details: for decrease of activity on introduction of torsion angle in the linker: one range stated for the group of compounds
HCV [2] = details: clinical trials, at 24 h following a single dose of 10 mg; cited from earlier work
HCV [3] = details: cited from earlier work

| Compound | decrease of activity on introduction of torsion angle in the linker ([1]; HCV 1b replicon) | anti-HCV activity (in words) ([1]; HCV 1b replicon) | also measured |
| --- | --- | --- | --- |
| COC(=O)N[C@H](C(=O)N1CCC[C@H]1c1ncc(-c2ccc(Oc3ccc(-c4cnc([C@@H]5CCCN5C(=O)[C@@H](NC(=O)OC)C(C)C)[nH]4)cc3)cc2)[nH]1)C(C)C [Compound 5b] | 16- to 15,000 fold | – | – |
| COC(=O)N[C@H](C(=O)N1CCC[C@H]1c1ncc(-c2ccc(-c3ccc(-c4ccc(-c5cnc([C@@H]6CCCN6C(=O)[C@@H](NC(=O)OC)C(C)C)[nH]5)cc4)s3)cc2)[nH]1)C(C)C [Compound 11d] | 16- to 15,000 fold | – | – |
| COC(=O)N[C@H](C(=O)N1CCC[C@H]1c1ncc(-c2ccc(-c3ccc(-c4ccc(-c5cnc([C@@H]6CCCN6C(=O)[C@@H](NC(=O)OC)C(C)C)[nH]5)cc4)nc3)cc2)[nH]1)C(C)C [Compound 11b] | – | low picomolar range | – |
| COC(=O)N[C@H](C(=O)N1CCC[C@H]1c1ncc(-c2ccc(-c3ccc(-c4cnc([C@@H]5CCCN5C(=O)[C@@H](NC(=O)OC)C(C)C)[nH]4)s3)cc2)[nH]1)C(C)C [Compound 5d] | – | almost complete loss of anti-HCV activity | – |
| COC(=O)N[C@H](C(=O)N1CCC[C@H]1c1ncc(-c2ccc(-c3ccc(-c4ccc(-c5ccc(-c6cnc([C@@H]7CCCN7C(=O)[C@@H](NC(=O)OC)C(C)C)[nH]6)cc5)cc4)cc3)cc2)[nH]1)C(C)C [Compound 11e] | – | – | loss of activity at the EC50 level compared to BMS-790052 ([1]; HCV 1b replicon): 37 fold |
| COC(=O)N[C@H](C(=O)N1CCC[C@H]1c1ncc(-c2ccc(-c3cn(-c4ccc(-c5cnc([C@@H]6CCCN6C(=O)[C@@H](NC(=O)OC)C(C)C)[nH]5)cc4)nn3)cc2)[nH]1)C(C)C [Compound 17] | 16- to 15,000 fold | – | – |
| COC(=O)N[C@H](C(=O)N1CCC[C@H]1c1ncc(-c2ccc(-c3cccc(-c4ccc(-c5cnc([C@@H]6CCCN6C(=O)[C@@H](NC(=O)OC)C(C)C)[nH]5)cc4)c3)cc2)[nH]1)C(C)C [Compound 11c] | 16- to 15,000 fold | – | – |
| COC(=O)N[C@H](C(=O)N1CCC[C@H]1c1ncc(-c2ccc(NS(=O)(=O)c3ccc(-c4cnc([C@@H]5CCCN5C(=O)[C@@H](NC(=O)OC)C(C)C)[nH]4)cc3)cc2)[nH]1)C(C)C [Compound 5c] | 16- to 15,000 fold | – | – |
| COC(=O)N[C@H](C(=O)N1CCC[C@H]1c1ncc(-c2ccc(-c3ccc(-c4ccc(-c5cnc([C@@H]6CCCN6C(=O)[C@@H](NC(=O)OC)C(C)C)[nH]5)cc4)cc3)cc2)[nH]1)C(C)C [Compound 11a] | – | low picomolar range | therapeutic index CC50/EC50 ([1]; HCV replicon assay): over four million |
| COC(=O)N[C@H](C(=O)N1CCC[C@H]1c1ncc(-c2ccc(-c3ccc(-c4cnc([C@@H]5CCCN5C(=O)[C@@H](NC(=O)OC)C(C)C)[nH]4)cc3)cc2)[nH]1)C(C)C [BMS-790052] | – | – | reduction in HCV RNA (HCV [2]): over 3 log10 IU/mL; median effective antiviral concentration (EC50) in vitro (HCV [3]): picomolar range |
